Test results taken from patent US11624095B2, “Method of quantifying HIV reservoirs by induced transcription based sequencing” (priority 2017, dated 2023).

Key:
[1] = tested on: HIV in purified CD4+ T-cells from HIV-1-infected men and women; assay: modified EDITS assay quantifying spreading viral infection (HIV RNA+ cells after Con A stimulation); format: cell-based; details: for spreading infection / HIV RNA induction: 300 pg/ml 17β-estradiol, 9 days; for spreading infection: absence of raltegravir, women compared to men (p=0.00052); for HIV RNA induction: women compared to men (p=0.00039); for number of HIV RNA positive cells per million: CD4+ memory cells stimulated 9 days with Con A in presence of 1 μM raltegravir
Text: It is contemplated that the quantification of the latent HIV-1 can occur before, during, and after the course of a therapeutic regimen in order to determine the efficacy of a chosen therapeutic regimen. One way to assess the efficacy of the HIV-1 therapeutic is to compare the latent HIV-1 reactivation pre and post therapeutic administration. The amount of cell associated inducible HIV env RNA measured in the sample can then be compared to a control to determine the efficacy of the antiviral and/or LRAs. The control can be the amount of cell associated inducible HIV env RNA measured in infected cells prior to the administration of the one or more antiviral and/or latency reversing agents. In order to evaluate sex differences in CD4+ T-cells from male and female subjects, methods described herein can be modified to include an additional in vitro step allowing for the quantification of spreading viral infections in the presence of candidate agents. Therefore, in optional embodiments, purified CD4+ T-cells are stimulated with an HIV transcription inducing agent in the absence or presence of an antiretroviral agent to block spreading of HIV infection and a candidate agent. The amount of newly infected cells can be determined by measuring the increase in HIV RNA+ cells in the absence of the infection blocking agent compared to cells stimulated in the presence of the infection blocking agent.
The number of newly infected cells was determined, in accordance with the methods described herein, by measuring the HIV RNA+ cells in the absence of raltegravir after nine days. It was shown that the addition of 17β-estradiol blocked both HIV RNA induction and spreading infection in women compared to men, consistent with previous observations that the estrogen receptor-1 (ESR-1) can act as a repressor of HIV transcription.
CD4^+ T-cells were isolated from cryopreserved PBMCs and the frequencies of cells harboring total and integrated HIV-1 DNA (tHIV and iHIV) were measured relative to CD3 copy number. Cell associated (CA) unspliced (usHIV) RNA was quantified and multiply-spliced (msRNA) was measured using the identical semi-nested PCR with different primers. Low level viremia was quantified from seven milliliters of plasma with PCR amplification targeting a conserved, untranslated HIV-1 gag RNA sequence (the HMMCgag assay). Inducible HIV-1 RNA was measured using the TILDA assay; briefly, purified CD4^+ T-cells are stimulated maximally with PMA/ionomycin, serially diluted, lysed and HIV-1 msRNA measured with a two-step RT-PCR. Maximum likelihood estimates based on the number of positive wells are used to determine the frequency of cells harboring inducible HIV-1. A modified version of the EDITS assay was used to quantify spreading viral infections. Purified CD4^+ T-cells were stimulated with the mitogen Concanavalin A (Con A) in the absence or presence of 1 μM Raltegravir (to block spreading infection) and absence or presence of 300 pg/ml 17β-estradiol. Newly infected cells were determined after nine days as the increase in HIV RNA+ cells in the absence of Raltegravir.
As a complementary method to evaluate sex differences CD4^+ T-cells from a subset of men (n=6) and women (n=6) who underwent leukapheresis were evaluated for the level of inducible replication competent virus using a modified EDITS assay (FIG. 10). Purified CD4^+ memory cells were stimulated for 9 days to induce HIV transcription in the presence or absence of raltegravir and number of HIV RNA^+ cells was quantified by EDITS. […] In the absence of raltegravir, there were 348 RNA positive cells per million for the women and 457 RNA positive cells per million for the men, indicating spreading infection.

[2] = tested on: latent HIV proviruses in memory CD4+ T-cells of HIV-1-infected subjects; assay: EDITS assay, inducible HIV env RNA in resting memory cells after ex vivo activation; format: cell-based
Text: We developed a novel deep sequencing-based protocol (EDITS, Envelope Detection by Induced Transcription-based Sequencing) to measure RNA induction, capable of detecting inducible cell-associated HIV RNA. The EDITS Assay measures inducible HIV envelope RNA in infected cells, including patient-derived samples. The HIV envelope mRNA has been chosen because the splicing pattern covers a significant portion of the proviral genome, thus minimizing readouts from defective proviruses with large deletions (FIG. 1). Briefly, 1.25×10^6 resting memory cells from aviremic (<20 copies/ml) HIV-1-infected subjects are induced by one or more latency reversing agents (LRAs) and/or by engagement of the T-cell receptor (TCR).
FIG. 6 summarizes the protocol of the EDITS assay. Briefly, blood is collected from an HIV-infected individual and peripheral blood mononuclear cells (PBMCs) are purified. CD4^+ memory cells are negatively isolated using robotic magnetic bead isolation technology (Stemcell, 19157RF) and allowed to equilibrate in RPMI with 10% FBS, Primocin and 30 IU/ml of IL-2 overnight. 1.25 million cells are stimulated with one or more LRA (e.g., Concanavalin A) for 24 hours. […]
Fastq files are analyzed using a proprietary pipeline (bioinformatics tool) to not only quantify the amount of HIV-1 present in any given sample but also to determine viral diversity.

[3] = Con A stimulation, listed as estrogen

## C[C@]12CC[C@@H]3c4ccc(O)cc4CC[C@H]3[C@@H]1CC[C@@H]2O [17β-estradiol]
[1]; Con A stimulation
  spreading infection: potently blocked
  HIV RNA induction: potently blocked
[1]; [3]
  spreading infection: potently blocked
  HIV RNA induction: potently blocked
[2]; samples activated ex vivo by TCR induction in presence and absence of Estradiol (FIG. 4)
  proviral reactivation: potent inhibitor of proviral reactivation

## Cc1nnc(C(=O)NC(C)(C)c2nc(C(=O)NCc3ccc(F)cc3)c(O)c(=O)n2C)o1 [raltegravir]
[1]; 1 μM raltegravir, 9 days culture, Con A stimulation
  viral spread: blocked
[1]; men (n=6)
  number of HIV RNA positive cells per million: 80 RNA positive cells per million
[1]; women (n=6)
  number of HIV RNA positive cells per million: 74 RNA positive cells per million

## Concanavalin A
[2]; strong LRAs such as TCR activation or mitogen activation, applicant's estimate
  efficiency of activation of RNA from proviruses: greater than 75%
